Test results taken from PMC11124822, “Discovery and Anticancer Screening of Novel Oxindole-Based Derivative Bearing Pyridyl Group as Potent and Selective Dual FLT3/CDK2 Kinase Inhibitor” (Pharmaceuticals, 2024).

Assays:
Experiment in all cases: NCI-60 antiproliferative screen (SRB)
[1] = test system: MDA-MB-468; type: cell-based, human; conditions: Homo sapiens; 10 µM single dose, 48 h; MDA-MB-468 (Breast); read-out: Growth inhibition (%)
[2] = test system: NCI-H226; type: cell-based, human; conditions: Homo sapiens; 10 µM single dose, 48 h; NCI-H226 (NSCLC); read-out: Growth inhibition (%)
[3] = test system: SF-295; type: cell-based, human; conditions: Homo sapiens; 10 µM single dose, 48 h; SF-295 (CNS); read-out: Growth inhibition (%)
[4] = test system: HCC-2998; type: cell-based, human; conditions: Homo sapiens; 10 µM single dose, 48 h; HCC-2998 (Colon); read-out: Growth inhibition (%)
[5] = test system: RPMI-8226; type: cell-based, human; conditions: Homo sapiens; 10 µM single dose, 48 h; RPMI-8226 (Leukemia); read-out: Growth inhibition (%)
[6] = test system: KM12; type: cell-based, human; conditions: Homo sapiens; 10 µM single dose, 48 h; KM12 (Colon); read-out: Growth inhibition (%)
[7] = test system: HS 578T; type: cell-based, human; conditions: Homo sapiens; 10 µM single dose, 48 h; HS 578T (Breast); read-out: Growth inhibition (%)
[8] = test system: RXF 393; type: cell-based, human; conditions: Homo sapiens; 10 µM single dose, 48 h; RXF 393 (Renal); read-out: Growth inhibition (%)
[9] = test system: 786-0; type: cell-based, human; conditions: Homo sapiens; 10 µM single dose, 48 h; 786-0 (Renal); read-out: Growth inhibition (%)
[10] = test system: MCF7; type: cell-based, human; conditions: Homo sapiens; 10 µM single dose, 48 h; MCF7 (Breast); read-out: Growth inhibition (%)
[11] = test system: CCRF-CEM; type: cell-based, human; conditions: Homo sapiens; 10 µM single dose, 48 h; CCRF-CEM (Leukemia); read-out: Growth inhibition (%)
[12] = test system: SK-MEL-28; type: cell-based, human; conditions: Homo sapiens; 10 µM single dose, 48 h; SK-MEL-28 (Melanoma); read-out: Growth inhibition (%)
[13] = test system: MOLT-4; type: cell-based; conditions: Homo sapiens; 10 µM single dose, 48 h; MOLT-4 (Leukemia); read-out: Growth inhibition (%)
[14] = test system: HCT-116; type: cell-based, human; conditions: Homo sapiens; 10 µM single dose, 48 h; HCT-116 (Colon); read-out: Growth inhibition (%)
[15] = test system: MDA-MB-231; type: cell-based, human; conditions: Homo sapiens; 10 µM single dose, 48 h; MDA-MB-231 (Breast); read-out: Growth inhibition (%)
[16] = test system: T-47D; type: cell-based, human; conditions: Homo sapiens, T47D; 10 µM single dose, 48 h; T-47D (Breast); read-out: Growth inhibition (%)
[17] = test system: SNB-75; conditions: Homo sapiens, SNB-75, 48 h, read-out: Growth inhibition (%)
Experimental: Anticancer activity was tested against 60 cancer cell lines (NCI-60) after 48h treatments with a single dosage of 10 μM of compounds by using sulforhodamine B assay [39] on the traditional 96-well platform. […] The human cancer cell lines of the NCI-60 panel are grown in RPMI 1640 medium supplemented with 5% FBS (fetal bovine serum) and 2 mM L-glutamine. […] For further analysis of promising compounds, five dose screens were performed against the NCI-60 panel. Drug treatments are performed in 5 doses using 10-fold or ½ log dose dilutions.

[18] = test system: EKVX; type: cell-based, human; conditions: Homo sapiens; 10 µM single dose, 48 h; EKVX (NSCLC); read-out: Growth inhibition (%)
[19] = test system: COLO 205; type: cell-based, human; conditions: Homo sapiens; 10 µM single dose, 48 h; COLO 205 (Colon); read-out: Growth inhibition (%)
[20] = test system: PC-3; type: cell-based, human; conditions: Homo sapiens; 10 µM single dose, 48 h; PC-3 (Prostate); read-out: Growth inhibition (%)
[21] = test system: HL-60(TB); type: cell-based, human; conditions: Homo sapiens; 10 µM single dose, 48 h; HL-60(TB) (Leukemia); read-out: Growth inhibition (%)
[22] = test system: U251; type: cell-based, human; conditions: Homo sapiens, U-251; 10 µM single dose, 48 h; U251 (CNS); read-out: Growth inhibition (%)
[23] = test system: TK-10; type: cell-based, human; conditions: Homo sapiens; 10 µM single dose, 48 h; TK-10 (Renal); read-out: Growth inhibition (%)
[24] = test system: SN12C; type: cell-based, human; conditions: Homo sapiens; 10 µM single dose, 48 h; SN12C (Renal); read-out: Growth inhibition (%)
[25] = test system: OVCAR-5; type: cell-based, human; conditions: Homo sapiens; 10 µM single dose, 48 h; OVCAR-5 (Ovarian); read-out: Growth inhibition (%)
[26] = test system: K-562; type: cell-based, human; conditions: Homo sapiens, K562; 10 µM single dose, 48 h; K-562 (Leukemia); read-out: Growth inhibition (%)
[27] = test system: SK-MEL-2; type: cell-based, human; conditions: Homo sapiens; 10 µM single dose, 48 h; SK-MEL-2 (Melanoma); read-out: Growth inhibition (%)
[28] = test system: MALME-3M; type: cell-based, human; conditions: Homo sapiens; 10 µM single dose, 48 h; MALME-3M (Melanoma); read-out: Growth inhibition (%)
[29] = test system: UO-31; type: cell-based, human; conditions: Homo sapiens; 10 µM single dose, 48 h; UO-31 (Renal); read-out: Growth inhibition (%)
[30] = test system: IGROV1; type: cell-based, human; conditions: Homo sapiens, IGROV-1; 10 µM single dose, 48 h; IGROV1 (Ovarian); read-out: Growth inhibition (%)

Compound	inhibition at 10 µM [1]	inhibition at 10 µM [2]	inhibition at 10 µM [3]	inhibition at 10 µM [4]	inhibition at 10 µM [5]	inhibition at 10 µM [6]	inhibition at 10 µM [8]	inhibition at 10 µM [9]	inhibition at 10 µM [10]	inhibition at 10 µM [11]	inhibition at 10 µM [12]	inhibition at 10 µM [13]	inhibition at 10 µM [14]	inhibition at 10 µM [16]	inhibition at 10 µM [17]	inhibition at 10 µM [18]	inhibition at 10 µM [19]	inhibition at 10 µM [20]	inhibition at 10 µM [21]	inhibition at 10 µM [22]	further results
O=C1Nc2ccc(F)cc2C1=Cc1ccc(OCc2cccnc2)cc1 (mixture of isomers) [Compound 5j, (E/Z)-5-Fluoro-3-[4-(pyridin-3-ylmethoxy)benzylidene]indolin-2-one]	58.5%	55.6%	54.8%	23.4%	61.2%	97.3%	37.3%	24.2%	91%	75%	28.2%	88.5%	84.7%	66.7%	-5.67%	41%	46.1%	43.6%	81.7%	83.7%	inhibition at 10 µM [7]: 37.4%; inhibition at 10 µM [15]: 42%; inhibition at 10 µM [23]: -1.92%; inhibition at 10 µM [24]: 46.1%; inhibition at 10 µM [25]: -11.2%; inhibition at 10 µM [26]: 86.1%; inhibition at 10 µM [27]: 50.4%
O=C1Nc2ccccc2C1=Cc1ccc(OCc2cccnc2)cc1 (mixture of isomers) [Compound 5i, (E/Z)-3-[4-(Pyridin-3-ylmethoxy)benzylidene]indolin-2-one]	51.2%	38.2%	31.2%	-2.08%	45.4%	87.4%	24.9%	17.2%	58%	52.4%	-2.65%	70%	56.5%	51%	-1.11%	31.7%	26.1%	29.8%	49.9%	53.2%	inhibition at 10 µM [7]: 17.6%; inhibition at 10 µM [15]: 35.4%; inhibition at 10 µM [23]: -15.7%; inhibition at 10 µM [24]: 27.1%; inhibition at 10 µM [25]: -27.6%; inhibition at 10 µM [26]: 75.9%; inhibition at 10 µM [27]: 24.1%
O=C1Nc2ccccc2C1=Cc1ccc(OCc2ccccn2)cc1 (mixture of isomers) [Compound 5e, (E/Z)-3-[4-(Pyridin-2-ylmethoxy]benzylidene) indolin-2-one]	61.7%	40.8%	27%	1.6%	64%	61.3%	44.8%	18%	50.8%	57.7%	-0.76%	62.5%	41.1%	54.9%	34.7%	47.3%	-14.7%	44.3%	38.8%	46.5%	inhibition at 10 µM [28]: 25.4%; inhibition at 10 µM [23]: 12.7%; inhibition at 10 µM [24]: 47.7%; inhibition at 10 µM [25]: 5.53%; inhibition at 10 µM [29]: 61.2%; inhibition at 10 µM [26]: 59.2%; inhibition at 10 µM [30]: 36.8%; inhibition at 10 µM [27]: -12.2%
O=C1Nc2ccc(Cl)cc2C1=Cc1ccc(OCc2cccnc2)cc1 (mixture of isomers) [Compound 5k, (E/Z)-5-Chloro-3-[4-(pyridin-3-ylmethoxy)benzylidene] indolin-2-one]	12.5%	11.8%	4.51%	-9.21%	29.7%	52.8%	6.84%	1.47%	55.5%	36.4%	-20.5%	52.6%	34.6%	23.2%	-10.2%	16.1%	5.66%	24.3%	14.8%	27.3%	inhibition at 10 µM [7]: 3.67%; inhibition at 10 µM [15]: 9.08%; inhibition at 10 µM [23]: -37.8%; inhibition at 10 µM [24]: 9.17%; inhibition at 10 µM [25]: -34.5%; inhibition at 10 µM [26]: 38.8%; inhibition at 10 µM [27]: 0.36%
